Where two headings read alike, the source gives them in different places.
What was measured:
Format in all cases: cell-based
[1] = tested on: human neuroblastoma cell line SH-SY5Y; assay: Inhibition of BSO-induced non-apoptotic cell death (Example B.1); settings: SH-SY5Y cells, 72 hours
Source text: Inhibition of BSO-Induced Non-Apoptotic Cell Death by Compounds Disclosed Herein
L-Buthionine sulfoximine (BSO) is a well-known glutathione (GSH) depletory, which inhibits gamma-glutamyl-cysteine-synthetase, the enzyme catalyzing the rate-limiting step in GSH biosynthesis. The human neuroblastoma cell line SH-SY5Y is sensitive to BSO-induced intracellular glutathione depletion, which causes high levels of reactive oxygen species (ROS) and cellular stress mimicking cellular conditions following ischemia (cf., e.g., Yamada et al., Neurochem. Int. 59:1003-9 (2011)).
Compounds disclosed herein were evaluated for their ability to promote cell survival upon administration of a lethal dose of BSO to cell-culture medium. Briefly, SH-SY5Y cells (ATCC® CRL-2266™) were propagated in DMEM supplemented with 10% FBS/1% Penicillin-Streptomycin, and then seeded onto 96-well plates at a concentration of 750 cells/well in 100 μL of media, to which BSO (Sigma Aldrich) was added (to a final concentration of 50 μM) together with increasing concentrations of the compound to be tested, and the plates incubated at 37° C./5% CO2 for 72 hours. Compound dilutions (0.5 pM to 100 μM) were prepared from 10 mM stocks dissolved in DMSO and diluted in media. Cells treated with BSO alone were used as negative control and alpha-Tocopherol (Sigma Aldrich) was used as positive control. Compound concentrations were tested in triplicate. After incubation, cell survival was detected using the live/dead cell assay AquaBluer™ (MultiTarget Pharmaceuticals) and quantified using a fluorescence plate reader (excitation filter: 530-560 nm/emission filter: 590 nm) (SpectraMax M4; Molecular Devices). Fluorescence data so obtained was normalised to the percentage of surviving cells and IC50 values calculated using the GraphPad Prism (GraphPad Software, Inc) software package.

[2] = Cellular toxicity, same assay as Example B.4 without TAM (Example B.5); settings: mouse; Pfa1 cells without TAM; read-out: TC50 (the source's name)
Source text: Cellular Toxicity of Compounds of the Invention
An estimate of the toxicity for compounds of the invention was obtained by using the same assay as described in Example B.4, but without the addition of TAM. […] Such TC50 values obtained for certain compounds disclosed herein, together with an approximate therapeutic window (estimated by dividing each TC50 by the corresponding IC50 determined from example B.4) are shown in Table 3.

[3] = tested on: mouse hippocampal cell line (Ht22); assay: Inhibition of glutamate-induced non-apoptotic cell death (Example B.2); settings: HT-22, Ht22 cells
Source text: Inhibition of Glutamate-Induced Non-Apoptotic Cell Death by Compounds of the Present Invention
Glutamate toxicity is conferred on cells from the mouse hippocampal cell line (Ht22) by inhibition of the cysteine/glutamate antiporter, System xc-, leading to impaired cysteine uptake and subsequent GSH depletion. This model is frequently used for mimicking glutathione depletion following oxidative stress in stroke, brain trauma and other neurodegenerative diseases and cellular conditions following ischemia (for example: van Leyen et al, J. Neurochem. 92:824-30 (2005)).
Compounds disclosed herein were evaluated for their ability to promote cell survival upon administration of a lethal dose of glutamate (GLU) to the cell-culture medium.
Briefly, Ht22 cells (ATCC) were propagated DMEM supplemented with 10% FBS/1% Penicillin-Streptomycin, and then seeded onto 96-well plates at a concentration of 2,000 cells/well in 100 μL of MEDIA, simultaneously with glutamate (Sigma Aldrich) to a final concentration of 5 mM, together with increasing concentrations of the compound to be tested (0.5 pM to 100 μM), and the plates incubated at 37° C./5% CO2 for 72 hours. Compound dilutions were prepared from 10 mM stocks dissolved in DMSO and diluted in media. Cells treated with glutamate alone were used as negative control and alpha-tocopherol (Sigma Aldrich) was used as positive control. Compound concentrations were tested in triplicate. After incubation, cell survival was detected and quantified as described in Example B.1.

Pfa1 cells = assay: Inhibition of non-apoptotic cell death after tamoxifen-induced GPx4 knockout in a recombinant cell line (Example B.4); settings: Mus musculus, read-out: Pfa1/TAM IC50
Source text: Inhibition of Non-Apoptotic Cell-Death by Compounds Disclosed Herein Using a Recombinant Cell Line
To combat high intracellular ROS levels, mammalian cells have evolved an intricate network of ROS scavenging in cells, in which the thioredoxin and glutathione (GSH) dependent systems prevail. […] Knockout of GPx4 in neurons causes massive neurodegeneration in cortical, cerebellar and hippocampal neurons underscoring the high relevance of ROS-induced cell death signaling in the brain. Briefly, immortalised fibroblasts from these mice were made to contain tamoxifen-inducible CreERT2, which catalyzes the functional ablation of both copies of GPx4 and resulting in a complete knockout of GPx4, a massive ROS burst, and cell death in cell culture. These cells (Pfa1 cells) were used to characterize compounds of the present invention, whereby tamoxifen (TAM) was given on day 0 along with the compound under test, and 72 hours later cell survival was evaluated using AlamarBlue.

[4] = 50 μM BSO, read-out: SH-SY5Y/BSO IC50
[5] = glutamate-induced cell death, read-out: Ht22/GLU

| Compound | IC50 [1, 4] [µM] | CC50 [2] [µM] | IC50 [3, 5] [µM] | IC50 (Pfa1 cells) [µM] | IC50 ([1]; BSO 50 μM, cell survival (AquaBluer), read-out: SH-SY5Y/BSO (Example B.1) IC50) [µM] | IC50 ([3]; glutamate 5 mM, 72 hours, cell survival, read-out: Ht22/GLU (Example B.2) IC50) [µM] |
| --- | --- | --- | --- | --- | --- | --- |
| Clc1cccc(CNC2=Nc3cc(Cl)c(Cl)cc3NC23CCOCC3)c1 [O/S-94] | < 0.05 | 10 to 20 | < 0.5 | < 0.05 |  |  |
| Cc1ccc(CNC2=Nc3ccccc3NC23CCCCC3)cc1 [C-12] | < 0.5 | 50 to 100 | < 0.5 | < 0.5 | 0.468 | 0.298 |
| Cc1cccc2c1NC1(CCCCC1)C(NCc1ccccc1)=N2 [C-263] | < 0.05 | 10 to 20 | < 0.5 | < 0.5 |  |  |
| CC1CN(C)CCC12Nc1ccccc1N=C2NCc1ccccc1 (stereo not shown) [N-256] | < 0.05 | 10 to 20 | < 0.5 | < 0.5 |  |  |
| CC1CC2(CCN1)Nc1ccccc1N=C2NCc1cccc(Cl)c1 (stereo not shown) [N-239] | < 0.05 | 5 to 10 | < 0.2 | < 1 |  |  |
| Clc1cccc(CNC2=Nc3cc4c(cc3NC23CCCCC3)OCCO4)c1 [C-227] | < 0.5 | 20 to 50 | < 1 | < 0.05 |  |  |
| CCCCCCCCCCCCN1CCC2(CC1)Nc1ccccc1N=C2NCc1ccccc1 [N-261] | < 0.02 | 2 to 5 | < 0.2 | < 0.1 |  |  |
| CN1CCC2(CC1)Nc1ccccc1N=C2NCc1ccccc1 [N-204] | < 0.05 | 20 to 50 | < 0.5 | < 0.5 |  |  |
| CN1CCC2(CC1)Nc1cc(Cl)c(Cl)cc1N=C2NCc1ccccc1 [N-230] | < 0.01 | 0.5 to 1 | < 0.01 | < 0.01 |  |  |
| Fc1cccc(F)c1CNC1=Nc2ccccc2NC12CCNCC2 [N-231] | < 0.1 | 10 to 20 | < 0.05 | < 0.05 |  |  |
| Clc1cccc(CNC2=Nc3ccccc3NC23CCCCCCC3)c1 [C-206] | < 0.05 | 5 to 10 | < 0.5 | < 0.5 |  |  |
| Cc1cc2c(cc1C)NC1(CCCCC1)C(NCc1ccccc1)=N2 [C-218] |  | 20 to 50 | < 0.1 | < 0.1 |  |  |
| c1ccc(CNC2=Nc3ccccc3NC23CCCCCCC3)cc1 [C-236] |  | 10 to 20 | < 0.5 | < 0.5 |  |  |
| Cc1cc(C)cc(CNC2=Nc3ccccc3NC23CCCCC3)c1 [C-225] |  | 10 to 20 | < 0.5 | < 0.5 |  |  |
| Clc1cc2c(cc1Cl)NC1(CCNCC1)C(NCc1ccccc1Cl)=N2 [N-207] |  | 0.5 to 1 | < 0.05 | < 0.01 |  |  |
| Fc1cc(Cl)ccc1CNC1=Nc2ccccc2NC12CCOCC2 [O/S-61] |  | 20 to 50 | < 1 | < 1 |  |  |
| Fc1cccc(F)c1CNC1=Nc2ccccc2NC12CCCCC2 [C-222] |  | 20 to 50 | < 1 | < 0.2 |  |  |
| CCCCCCCCN1CCC2(CC1)Nc1ccccc1N=C2NCc1ccccc1 [N-234] |  | 5 to 10 | < 0.1 | < 0.1 |  |  |
| Cc1cc2c(cc1C)NC1(CCN(C)CC1)C(NCc1ccccc1)=N2 [N-233] |  | 10 to 20 | < 0.1 | < 0.2 |  |  |
| CC(NC1=Nc2ccccc2NC12CCOCC2)c1ccccc1 (stereo not shown) [O/S-348] |  | 50 to 100 | < 5 | < 5 |  |  |
| Clc1cc2c(cc1Cl)NC1(CCCCCC1)C(NCc1ccccc1)=N2 [C-235] |  | 10 to 20 | < 0.5 | < 0.2 |  |  |
| Cc1cc2c(cc1C)NC1(CCCCCC1)C(NCc1ccccc1)=N2 [C-239] |  | 10 to 20 | < 0.2 | < 0.2 |  |  |

| Compound | IC50 [1, 4] [µM] | CC50 [2] [µM] | IC50 [3, 5] [µM] | IC50 (Pfa1 cells) [µM] | IC50 ([1]; BSO 50 μM, cell survival (AquaBluer), read-out: SH-SY5Y/BSO (Example B.1) IC50) [µM] | IC50 ([3]; glutamate 5 mM, 72 hours, cell survival, read-out: Ht22/GLU (Example B.2) IC50) [µM] |
| --- | --- | --- | --- | --- | --- | --- |
| c1ccc(CCCNC2=Nc3ccccc3NC23CCCCC3)cc1 [C-221] |  | 5 to 10 | < 1 | < 1 |  |  |
| Clc1cc2c(cc1Cl)NC1(CCCCCC1)C(NCc1ccccc1Cl)=N2 [C-243] |  | 10 to 20 | < 1 | < 0.5 |  |  |
| Fc1cc2c(cc1F)NC1(CCCCC1)C(NCc1ccccc1)=N2 [C-238] |  | 20 to 50 | < 0.2 | < 0.5 |  |  |
| Clc1ccc(CNC2=Nc3ccccc3NC23CCNCC3)c(Cl)c1 [N-56] |  | 1 to 2 | < 0.05 | < 0.01 |  |  |
| c1ccc(C(CNC2=Nc3ccccc3NC23CCCCC3)c2ccccc2)cc1 [C-229] |  | 2 to 5 | < 1 | < 0.2 |  |  |
| COc1cccc(CNC2=Nc3ccccc3NC23CCOCC3)c1 [O/S-14] |  | 50 to 100 | < 5 | < 5 |  |  |
| c1ccc(CNC2=Nc3ccccc3NC23CCCNCC3)cc1 (stereo not shown) [N-212] |  | 10 to 20 | < 1 | < 1 |  |  |
| Clc1cccc(CNC2=Nc3cc(Cl)c(Cl)cc3NC23CCCCCC3)c1 [C-234] |  | 20 to 50 | < 0.5 | < 0.5 |  |  |
| Fc1cccc(F)c1CNC1=Nc2cc(Cl)c(Cl)cc2NC12CCCCC2 [C-240] |  | 5 to 10 | < 0.2 | < 0.5 |  |  |
| Cc1cccc(CNC2=Nc3cc(C)c(C)cc3NC23CCNCC3)c1 [N-235] |  | 1 to 2 | < 0.05 | < 0.05 |  |  |
| COc1cccc(CNC2=Nc3ccccc3NC23CCNCC3)c1 [N-14] |  | 20 to 50 | < 0.2 | < 0.5 |  |  |
| c1ccc(CNC2=Nc3ccccc3NC23CCCC3)cc1 [C-219] |  | 20 to 50 | < 5 | < 2 |  |  |
| CN1CCC2(CC1)Nc1ccccc1N=C2NCc1ccccc1Cl [N-209] |  | 5 to 10 | < 0.5 | < 0.1 |  |  |
| FC(F)(F)c1cccc(CNC2=Nc3ccccc3NC23CCOCC3)c1 [O/S-23] |  | 20 to 50 | < 1 | < 0.5 |  |  |
| Clc1cccc(CCNC2=Nc3ccccc3NC23CCNCC3)c1 [N-79] |  | 2 to 5 | < 0.05 | < 0.1 |  |  |
| CC(CCc1ccccc1)NC1=Nc2ccccc2NC12CCNCC2 (stereo not shown) [N-222] |  | 20 to 50 | < 0.05 | < 0.2 |  |  |
| c1ccc(C(CNC2=Nc3ccccc3NC23CCOCC3)c2ccccc2)cc1 [O/S-352] |  | 20 to 50 | < 1 | < 1 |  |  |
| Cc1cc2c(cc1C)NC1(CCNCC1)C(NCc1cccc(Cl)c1)=N2 [N-111] |  | 1 to 2 | < 0.01 | < 0.01 |  |  |
| c1ccc(CCNC2=Nc3ccccc3NC23CCCCC3)cc1 [C-226] |  | 10 to 20 | < 2 | < 1 |  |  |
| Cc1cc2c(cc1C)NC1(CCNCC1)C(NCc1ccc(Cl)c(Cl)c1)=N2 [N-232] |  | 1 to 2 | < 0.01 | < 0.01 |  |  |
| Fc1ccc(CNC2=Nc3ccccc3NC23CCSCC3)c(F)c1 [O/S-359] |  | 50 to 100 | < 5 | > 5 |  |  |
| Fc1cccc(CNC2=Nc3ccccc3NC23CCCCC3)c1 [C-5] |  | 20 to 50 | < 5 | < 0.5 |  |  |

Reference: patent publication US10280179B2, “Spiroquinoxaline derivatives as inhibitors of non-apoptotic regulated cell-death” (Helmholtz Zentrum Munchen—Deutches Forschungszentrum Fur …, priority 2013, dated 2019)
